Holding throughout (assay type): functional, cell-based
In one experiment the test system is KB. Nature of the experiment: Cytotoxicity against human KB cells assessed as reduction in cell viability by SRB assay. (The SRB assay estimates cell density from bound dye.)
In a further experiment the test system is P388. Nature of the experiment: Cytotoxicity against mouse P388 cells assessed as reduction in cell viability by SRB assay.
Another experiment deals with A549. Kind of experiment: Cytotoxicity against human A549 cells assessed as reduction in cell viability by SRB assay.
Another experiment deals with HT-29. Kind of experiment: Cytotoxicity against human HT-29 cells assessed as reduction in cell viability by SRB assay.
The test system of another experiment is MCF7. Nature of the experiment: Cytotoxicity against human MCF7 cells assessed as reduction in cell viability by SRB assay.
Experiment [1] in a line: Cytotoxicity against rat ASK cells assessed as reduction in cell viability by SRB assay.

Each structure is given as a SMILES string. pIC50: −log10 of the molar value.

With `CC(=O)OC[C@@]1(C)[C@H]2CC[C@]3(CNc4ccccc4F)O[C@H](C4=CCOC4=O)C[C@H]3[C@]2(C)CC[C@H]1OC(C)=O`, the negative logarithm of the IC50 (pIC50) in the experiment on KB was 4.58; in the experiment with P388, 5.12; in the experiment with A549 it was 5.07; in the experiment with HT-29, 5.19; in the experiment with MCF7, 4.93; in experiment [1] it was 4.56.

As to `CC(=O)O[C@@H]1CC[C@]2(C)[C@H](CC[C@]3(CNc4ccc(Br)cc4)O[C@H](C4=CCOC4=O)C[C@H]32)[C@]1(C)CO[Si](C)(C)C(C)(C)C`, the negative-log IC50 (pIC50) is 4.59 in the experiment with KB; 5.19 in the experiment on P388; 4.82 with A549; 4.56 with HT-29; 4.89 in the experiment with MCF7; 5.13 in experiment [1].

For the molecule `CC(=O)O[C@@H]1CC[C@]2(C)[C@H](CC[C@]3(CNc4ccccc4F)O[C@H](C4=CCOC4=O)C[C@H]32)[C@]1(C)CO[Si](C(C)C)(C(C)C)C(C)C`, the pIC50 in the experiment with KB was 4.51; in the experiment on P388, 4.67; with A549 it was 4.68; in the experiment on HT-29, 4.52; in the experiment on MCF7, 4.82; in experiment [1], 5.09.

In the case of `CC(=O)O[C@@H]1CC[C@]2(C)[C@H](CC[C@]3(CNc4ccc(Br)cc4)O[C@H](C4=CCOC4=O)C[C@H]32)[C@]1(C)CO[Si](c1ccccc1)(c1ccccc1)C(C)(C)C`, the negative logarithm of the IC50 (pIC50) in the experiment on KB was below 4.30; in the experiment with P388, 4.32; in the experiment on A549, 4.32; in the experiment with HT-29 it was below 4.30; with MCF7 it was below 4.30; in experiment [1] it was below 4.30.

Regarding `CC(=O)O[C@@H]1CC[C@]2(C)[C@H](CC[C@]3(CNc4ccccc4)O[C@H](C4=CCOC4=O)C[C@H]32)[C@]1(C)CO[Si](C(C)C)(C(C)C)C(C)C`, the pIC50 in the experiment on KB was 4.73; in the experiment with P388 it was 5.18; in the experiment on A549, 5.03; with HT-29 it was 4.76; in the experiment on MCF7 it was 5.08; in experiment [1], 5.21.

With `CC(=O)OC[C@@]1(C)[C@H]2CC[C@]3(CNc4cccc(F)c4)O[C@H](C4=CCOC4=O)C[C@H]3[C@]2(C)CC[C@H]1OC(C)=O`, the pIC50 with KB is 4.68; with P388, 5.16; in the experiment on A549, 5.19; in the experiment on HT-29 it was 5.23; in the experiment on MCF7, 5.13; in experiment [1], 4.65.

Take `CC(=O)O[C@@H]1CC[C@]2(C)[C@H](CC[C@]3(CNc4cccc(F)c4)O[C@H](C4=CCOC4=O)C[C@H]32)[C@]1(C)COC(c1ccccc1)(c1ccccc1)c1ccccc1`: the negative logarithm of the IC50 (pIC50) (in the experiment with KB; in the experiment with P388; with A549; in the experiment with HT-29; in the experiment on MCF7; in experiment [1]) was below 4.30 each time.

For `CC(=O)O[C@@H]1CC[C@]2(C)[C@H](CC[C@]3(CNc4ccc(Br)cc4)O[C@H](C4=CCOC4=O)C[C@H]32)[C@]1(C)COC(c1ccccc1)(c1ccccc1)c1ccccc1`, the pIC50 (with KB; with P388; in the experiment with A549; in the experiment with HT-29; with MCF7; in experiment [1]) was below 4.30 each time.

As for `CC(=O)O[C@@H]1CC[C@]2(C)[C@H](CC[C@]3(CNc4cccc(F)c4)O[C@H](C4=CCOC4=O)C[C@H]32)[C@]1(C)CO[Si](C)(C)C(C)(C)C`, the pIC50 in the experiment on KB is 4.56; in the experiment with P388, 5.19; with A549 it was 4.67; with HT-29, 4.58; in the experiment with MCF7, 5.06; in experiment [1] it was 5.21.

Consider `COc1ccc(NC[C@]23CC[C@@H]4[C@](C)(CO[Si](c5ccccc5)(c5ccccc5)C(C)(C)C)[C@H](OC(C)=O)CC[C@@]4(C)[C@@H]2C[C@@H](C2=CCOC2=O)O3)cc1OC`, for which the pIC50 in the experiment with KB was below 4.30; in the experiment with P388, 4.56; in the experiment on A549, 4.31; with HT-29 it was below 4.30; with MCF7, 4.45; in experiment [1], 5.03.

For `COc1ccc(NC[C@]23CC[C@@H]4[C@](C)(COC(C)=O)[C@H](OC(C)=O)CC[C@@]4(C)[C@@H]2C[C@@H](C2=CCOC2=O)O3)cc1OC`, the negative-log IC50 (pIC50) in the experiment on KB is below 4.30; with P388 it was 4.54; in the experiment on A549 it was below 4.30; in the experiment with HT-29, 4.62; in the experiment with MCF7 it was below 4.30; in experiment [1] it was below 4.30.

Consider `CC(=O)O[C@@H]1CC[C@]2(C)[C@H](CC[C@]3(CNc4ccccc4)O[C@H](C4=CCOC4=O)C[C@H]32)[C@]1(C)CO[Si](c1ccccc1)(c1ccccc1)C(C)(C)C`, for which the pIC50 in the experiment with KB was below 4.30; in the experiment with P388, 4.34; with A549 it was below 4.30; with HT-29, below 4.30; in the experiment with MCF7, below 4.30; in experiment [1], 5.03.

Take `COc1ccc(NC[C@]23CC[C@@H]4[C@](C)(CO[Si](C(C)C)(C(C)C)C(C)C)[C@H](OC(C)=O)CC[C@@]4(C)[C@@H]2C[C@@H](C2=CCOC2=O)O3)cc1OC`: the pIC50 in the experiment with KB was 4.75; with P388, 5.30; with A549, 5.22; with HT-29, 5.28; with MCF7, 5.33; in experiment [1], 5.34.

In the case of `CC(=O)O[C@@H]1CC[C@]2(C)[C@H](CC[C@]3(CNc4ccccc4F)O[C@H](C4=CCOC4=O)C[C@H]32)[C@]1(C)COC(c1ccccc1)(c1ccccc1)c1ccccc1`, the negative logarithm of the IC50 (pIC50) (in the experiment with KB; with P388; in the experiment with A549; in the experiment on HT-29; in the experiment on MCF7; in experiment [1]) was below 4.30 in each case.

On to `COc1ccc(NC[C@]23CC[C@@H]4[C@](C)(COC(c5ccccc5)(c5ccccc5)c5ccccc5)[C@H](OC(C)=O)CC[C@@]4(C)[C@@H]2C[C@@H](C2=CCOC2=O)O3)cc1OC`, for which the pIC50 in the experiment with KB was below 4.30; in the experiment with P388, 4.52; in the experiment with A549, below 4.30; in the experiment on HT-29, below 4.30; in the experiment with MCF7, 4.64; in experiment [1] it was 5.19.

For `CC(=O)OC[C@@]1(C)[C@H]2CC[C@]3(CNc4ccccc4)O[C@H](C4=CCOC4=O)C[C@H]3[C@]2(C)CC[C@H]1OC(C)=O`, the pIC50 in the experiment with KB is below 4.30; with P388, 4.40; with A549, below 4.30; with HT-29, 4.59; in the experiment with MCF7 it was below 4.30; in experiment [1], below 4.30.

Take `CC(=O)O[C@@H]1CC[C@]2(C)[C@H](CC[C@]3(CNc4cccc(F)c4)O[C@H](C4=CCOC4=O)C[C@H]32)[C@]1(C)CO[Si](C(C)C)(C(C)C)C(C)C`: the negative-log IC50 (pIC50) in the experiment with KB was 4.48; in the experiment on P388, 5.10; in the experiment on A549, 4.61; in the experiment on HT-29 it was 4.52; with MCF7, 4.90; in experiment [1], 5.16.

On to `CC(=O)O[C@@H]1CC[C@]2(C)[C@H](CC[C@]3(CNc4cccc(F)c4)O[C@H](C4=CCOC4=O)C[C@H]32)[C@]1(C)CO[Si](c1ccccc1)(c1ccccc1)C(C)(C)C`, for which the negative-log IC50 (pIC50) with KB was below 4.30; in the experiment with P388 it was below 4.30; with A549 it was below 4.30; in the experiment on HT-29, below 4.30; with MCF7 it was below 4.30; in experiment [1] it was 4.35.

On to `COc1ccc(NC[C@]23CC[C@@H]4[C@](C)(CO[Si](C)(C)C(C)(C)C)[C@H](OC(C)=O)CC[C@@]4(C)[C@@H]2C[C@@H](C2=CCOC2=O)O3)cc1OC`, for which the pIC50 is 4.94 with KB; 5.26 in the experiment on P388; 5.28 in the experiment with A549; 5.21 with HT-29; 5.27 with MCF7; 5.29 in experiment [1].

As for `CC(=O)O[C@@H]1CC[C@]2(C)[C@H](CC[C@]3(CNc4ccccc4F)O[C@H](C4=CCOC4=O)C[C@H]32)[C@]1(C)CO[Si](c1ccccc1)(c1ccccc1)C(C)(C)C`, the negative logarithm of the IC50 (pIC50) is below 4.30 with KB; below 4.30 with P388; below 4.30 with A549; below 4.30 in the experiment with HT-29; below 4.30 in the experiment with MCF7; 4.40 in experiment [1].

For `CC(=O)O[C@@H]1CC[C@]2(C)[C@H](CC[C@]3(CNc4ccccc4)O[C@H](C4=CCOC4=O)C[C@H]32)[C@]1(C)CO[Si](C)(C)C(C)(C)C`, the pIC50 is 4.67 in the experiment with KB; 5.28 in the experiment with P388; 5.11 in the experiment on A549; 5.07 in the experiment on HT-29; 5.26 with MCF7; 5.23 in experiment [1].

Consider `CC(=O)O[C@@H]1CC[C@]2(C)[C@H](CC[C@]3(CNc4ccc(Br)cc4)O[C@H](C4=CCOC4=O)C[C@H]32)[C@]1(C)CO[Si](C(C)C)(C(C)C)C(C)C`, for which the pIC50 in the experiment with KB is below 4.30; in the experiment with P388, 4.39; with A549 it was below 4.30; in the experiment on HT-29, below 4.30; in the experiment on MCF7 it was below 4.30; in experiment [1], 4.53.

On to `CC(=O)O[C@@H]1CC[C@]2(C)[C@H](CC[C@]3(CNc4ccccc4F)O[C@H](C4=CCOC4=O)C[C@H]32)[C@]1(C)CO[Si](C)(C)C(C)(C)C`, for which the negative logarithm of the IC50 (pIC50) with KB was 5.19; in the experiment on P388 it was 5.34; with A549, 5.21; in the experiment with HT-29, 5.25; in the experiment with MCF7 it was 5.35; in experiment [1], 5.48.

For `CC(=O)OC[C@@]1(C)[C@H]2CC[C@]3(CNc4ccc(Br)cc4)O[C@H](C4=CCOC4=O)C[C@H]3[C@]2(C)CC[C@H]1OC(C)=O`, the pIC50 in the experiment with KB is 4.68; in the experiment on P388, 5.13; with A549 it was 5.21; in the experiment on HT-29, 5.22; with MCF7, 5.16; in experiment [1], 5.08.

Usually pIC50 stands for the negative decadic logarithm of the IC50, by convention in mol/L.

For the origin of these results see ChEMBL document CHEMBL4190295, “One-pot three steps cascade synthesis of novel isoandrographolide analogues and their cytotoxic activity” (Eur J Med Chem, 2017).
